Several values for one entry are separate records, joined by “and”; a condition that tells them apart may be missing. Equal values may be shown once. Inconclusive results and toxic doses are left out.
System: BDF1 mice, P388 leukemia ip, median survival T/C
Experiment: NCI In Vivo Anticancer Drug Screen. Data for tumor model P388 Leukemia (intraperitoneal) in B6D2F1 (BDF1) mice
Conditions: endpoint: median survival time, higher = longer survival
Method in brief: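 Transplantable tumour in mice; compound vs vehicle dosing; survival scored; ratio of treated to control reported.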

[1] = dose: 25.0 mg/kg/injection, schedule: Q01DX009 (ip), vehicle: Klucel (hydroxypropylcellulose) (HPC)
[2] = dose: 50.0 mg/kg/injection, schedule: Q01DX009 (ip), vehicle: Klucel (hydroxypropylcellulose) (HPC)
[3] = dose: 100.0 mg/kg/injection, schedule: Q01DX009 (ip), vehicle: Klucel (hydroxypropylcellulose) (HPC)
[4] = dose: 100.0 mg/kg/injection, schedule: Q04DX003 (ip), vehicle: Klucel (hydroxypropylcellulose) (HPC)
[5] = dose: 200.0 mg/kg/injection, schedule: Q04DX003 (ip), vehicle: Klucel (hydroxypropylcellulose) (HPC)
[6] = dose: 100.0 mg/kg/injection, schedule: Q04DX003 (ip), vehicle: saline with Tween-80
[7] = dose: 200.0 mg/kg/injection, schedule: Q04DX003 (ip), vehicle: saline with Tween-80
[8] = dose: 400.0 mg/kg/injection, schedule: Q04DX003 (ip), vehicle: saline with Tween-80
[9] = dose: 50.0 mg/kg/injection, schedule: Q01DX009 (ip), vehicle: saline with Tween-80
[10] = dose: 100.0 mg/kg/injection, schedule: Q01DX009 (ip), vehicle: saline with Tween-80
[11] = dose: 200.0 mg/kg/injection, schedule: Q01DX009 (ip), vehicle: saline with Tween-80
[12] = dose: 400.0 mg/kg/injection, schedule: Q01DX009 (ip), vehicle: saline with Tween-80
[13] = dose: 50.0 mg/kg/injection, schedule: Q04DX003 (ip), vehicle: Klucel (hydroxypropylcellulose) (HPC)

Compound: Cc1cccc(C)c1NC(=O)N(CCCl)N=O
- T/C (dose: 0.88 mg/kg/injection, schedule: Q01DX009 (ip), vehicle: saline with Tween-80): 159 % of control
- T/C (dose: 1.32 mg/kg/injection, schedule: Q01DX009 (ip), vehicle: saline with Tween-80): 159 % of control
- T/C (dose: 2.0 mg/kg/injection, schedule: Q01DX009 (ip), vehicle: saline with Tween-80): 204 % of control
- T/C (dose: 3.0 mg/kg/injection, schedule: Q01DX009 (ip), vehicle: saline with Tween-80): 200 % of control
- T/C (dose: 12.5 mg/kg/injection, schedule: Q04DX003 (ip), vehicle: saline with Tween-80): 86 % of control
- T/C (dose: 25.0 mg/kg/injection, schedule: Q04DX003 (ip), vehicle: saline with Tween-80): 109 % of control

Compound: O=C(O)CNC(=O)CCl
- T/C [1]: 110 % of control
- T/C [2]: 120 % of control
- T/C [3]: 120 % of control
- T/C (dose: 225.0 mg/kg/injection, schedule: Q01DX009 (ip), vehicle: Klucel (hydroxypropylcellulose) (HPC)): 86 % of control

Compound: OCc1cc2ccccc2cc1O
- T/C [4]: 90 % of control
- T/C [5]: 109 % of control
- T/C (dose: 400.0 mg/kg/injection, schedule: Q04DX003 (ip), vehicle: Klucel (hydroxypropylcellulose) (HPC)): 104 % of control

Compound: CCOC(=O)c1c(OCCCc2ccc(F)cc2)cc2ccc3ccccc3c2c1OCCCc1ccc(F)cc1
- T/C [6]: 86 % of control
- T/C [7]: 87 % of control
- T/C [8]: 103 % of control

Compound: Oc1c(Cl)cc(Cl)c2cccnc12
- T/C (dose: 12.5 mg/kg/injection, schedule: Q01DX010 (ip), vehicle: carboxymethylcellulose (CMC)): 104 % of control
- T/C (dose: 25.0 mg/kg/injection, schedule: Q01DX010 (ip), vehicle: carboxymethylcellulose (CMC)): 104 % of control
- T/C (dose: 50.0 mg/kg/injection, schedule: Q01DX010 (ip), vehicle: carboxymethylcellulose (CMC)): 104 % of control

Compound: CCC(=N\NC(=S)NCCN(CC)CC)/C(C)=N/NC(=S)NCCN(CC)CC
- T/C (dose: 1.56 mg/kg/injection, schedule: Q01DX009 (ip), vehicle: saline): 116 % of control
- T/C (dose: 3.13 mg/kg/injection, schedule: Q01DX009 (ip), vehicle: saline): 105 % of control
- T/C (dose: 6.25 mg/kg/injection, schedule: Q01DX009 (ip), vehicle: saline): 106 % of control
- T/C (dose: 12.5 mg/kg/injection, schedule: Q01DX009 (ip), vehicle: saline): 109 % of control and 118 % of control

Compound: O=c1[nH]cnc2c(Cl)c(C(Cl)(Cl)Cl)nn12 (tested in a mixture with another compound)
- T/C [9]: 99 % of control
- T/C [10]: 90 % of control and 103 % of control
- T/C [6]: 111 % of control
- T/C [11]: 99 % of control and 114 % of control
- T/C [7]: 104 % of control
- T/C [12]: 93 % of control and 112 % of control
- T/C [8]: 102 % of control

Compound: CC1=C/C(=N/NC(N)=O)CC(C)C1 (stereo not drawn)
- T/C [13]: 100 % of control
- T/C [4]: 105 % of control
- T/C [5]: 100 % of control

Compound: O=C(Nc1ccc(C(=O)Nc2cc(S(=O)(=O)O)cc3cccc(S(=O)(=O)O)c23)cc1)Nc1ccc(C(=O)Nc2cc(S(=O)(=O)O)cc3cccc(S(=O)(=O)O)c23)cc1
- T/C [2]: 95 % of control
- T/C [13]: 100 % of control
- T/C [3]: 110 % of control
- T/C [4]: 104 % of control
- T/C [5]: 86 % of control

Compound: C(=C\c1ccc2ccc(/C=C/c3ccccc3)cc2c1)/c1ccccc1
- T/C [6]: 112 % of control
- T/C [7]: 90 % of control
- T/C [8]: 105 % of control

Compound: C=CCN(CC=C)P(=O)(N1CC1C)N1CC1C (stereo not drawn)
- T/C (dose: 0.2 mg/kg/injection, schedule: Q01DX009 (ip), vehicle: saline): 101 % of control
- T/C (dose: 0.4 mg/kg/injection, schedule: Q01DX009 (ip), vehicle: saline): 106 % of control

Compound: O=C(CCl)Oc1ccc(-c2ccccc2)cc1Br
- T/C [9]: 105 % of control
- T/C [10]: 102 % of control
- T/C [11]: 103 % of control
- T/C [12]: 88 % of control

Compound: NC1=NC(=S)C2N=C(N=Nc3ccc(C(=O)NC(CCC(=O)O)C(=O)O)cc3)N=C2N1 (stereo not drawn)
- T/C (dose: 1.56 mg/kg/injection, schedule: Q01DX009 (ip), vehicle: Klucel (hydroxypropylcellulose) (HPC)): 120 % of control
- T/C (dose: 3.13 mg/kg/injection, schedule: Q01DX009 (ip), vehicle: Klucel (hydroxypropylcellulose) (HPC)): 91 % of control
- T/C (dose: 6.25 mg/kg/injection, schedule: Q01DX009 (ip), vehicle: Klucel (hydroxypropylcellulose) (HPC)): 87 % of control
- T/C (dose: 25.0 mg/kg/injection, schedule: Q04DX003 (ip), vehicle: Klucel (hydroxypropylcellulose) (HPC)): 120 % of control
- T/C [13]: 112 % of control

Compound: CC1=CC(c2ccccc2)=CC(C)(C)C1 (tested in a mixture with another compound)
- T/C (dose: 25.0 mg/kg/injection, schedule: Q01DX009 (ip), vehicle: saline sonified): 104 % of control
- T/C (dose: 50.0 mg/kg/injection, schedule: Q01DX009 (ip), vehicle: saline sonified): 109 % of control
- T/C (dose: 100.0 mg/kg/injection, schedule: Q01DX009 (ip), vehicle: saline sonified): 109 % of control

Compound: C/C(=C\COc1ccc2ccc(=O)oc2c1)C1=CC(=O)C(C)(C)O1
- T/C [1]: 93 % of control
- T/C [2]: 94 % of control
- T/C (dose: 100.0 mg/kg/injection, schedule: Q01DX001 (ip), vehicle: saline with Tween-80): 100 % of control
- T/C [3]: 87 % of control
- T/C [10]: 115 % of control
- T/C (dose: 200.0 mg/kg/injection, schedule: Q01DX001 (ip), vehicle: saline with Tween-80): 103 % of control
- T/C (dose: 200.0 mg/kg/injection, schedule: Q01DX009 (ip), vehicle: Klucel (hydroxypropylcellulose) (HPC)): 95 % of control
- T/C (dose: 400.0 mg/kg/injection, schedule: Q01DX001 (ip), vehicle: saline with Tween-80): 100 % of control

Compound: C[N+]1(C)N=C([O-])N(c2ccccc2C(F)(F)F)C1=O
- T/C [9]: 87 % of control
- T/C [10]: 92 % of control

Compound: CCCCCC(C[N+](C)(C)C)C(=O)/C=C/c1ccc(Cl)cc1 (stereo not drawn)
- T/C (dose: 6.25 mg/kg/injection, schedule: Q01DX001 (ip), vehicle: Klucel (hydroxypropylcellulose) (HPC)): 113 % of control
- T/C (dose: 12.5 mg/kg/injection, schedule: Q01DX001 (ip), vehicle: Klucel (hydroxypropylcellulose) (HPC)): 100 % of control
- T/C (dose: 25.0 mg/kg/injection, schedule: Q01DX001 (ip), vehicle: Klucel (hydroxypropylcellulose) (HPC)): 101 % of control
- T/C (dose: 50.0 mg/kg/injection, schedule: Q01DX001 (ip), vehicle: Klucel (hydroxypropylcellulose) (HPC)): 88 % of control

Compound: CCN(CCNc1ccc(C)c2sc3ccccc3c(=O)c12)CC(C)(C)O
- T/C (dose: 35.0 mg/kg/injection, schedule: Q01DX009 (ip), vehicle: saline): 108 % of control
- T/C (dose: 44.0 mg/kg/injection, schedule: Q04DX003 (ip), vehicle: saline): 105 % of control
- T/C (dose: 66.0 mg/kg/injection, schedule: Q04DX003 (ip), vehicle: saline): 120 % of control
- T/C (dose: 100.0 mg/kg/injection, schedule: Q01DX009 (ip), vehicle: saline): 159 % of control
- T/C (dose: 132.0 mg/kg/injection, schedule: Q04DX003 (ip), vehicle: saline): 160 % of control
- T/C (dose: 200.0 mg/kg/injection, schedule: Q04DX003 (ip), vehicle: saline): 185 % of control
- T/C (dose: 225.0 mg/kg/injection, schedule: Q01DX009 (ip), vehicle: saline): 90 % of control

Compound: c1ccc(CSc2ncnc3nc[nH]c23)cc1
- T/C (dose: 12.5 mg/kg/injection, schedule: Q01DX010 (ip), vehicle: saline): 100 % of control
- T/C (dose: 25.0 mg/kg/injection, schedule: Q01DX010 (ip), vehicle: saline): 100 % of control
- T/C (dose: 50.0 mg/kg/injection, schedule: Q01DX010 (ip), vehicle: saline): 100 % of control
- T/C (dose: 100.0 mg/kg/injection, schedule: Q01DX010 (ip), vehicle: saline): 100 % of control

Compound: COc1ccc(C2(C#N)CC2)cc1
- T/C [10]: 95 % of control
- T/C [6]: 91 % of control
- T/C [11]: 100 % of control
- T/C [7]: 100 % of control
- T/C [12]: 104 % of control
- T/C [8]: 108 % of control

Compound: O=C(CCCl)N1CCN(C(=O)CCCl)CC1
- T/C (dose: 66.0 mg/kg/injection, schedule: Q01DX009 (ip), vehicle: Klucel (hydroxypropylcellulose) (HPC)): 104 % of control
- T/C [3]: 90 % of control
- T/C (dose: 100.0 mg/kg/injection, schedule: Q04DX003 (ip), vehicle: saline sonified): 116 % of control
- T/C (dose: 150.0 mg/kg/injection, schedule: Q01DX009 (ip), vehicle: Klucel (hydroxypropylcellulose) (HPC)): 113 % of control
- T/C (dose: 200.0 mg/kg/injection, schedule: Q04DX003 (ip), vehicle: saline sonified): 108 % of control
- T/C (dose: 400.0 mg/kg/injection, schedule: Q01DX009 (ip), vehicle: Klucel (hydroxypropylcellulose) (HPC)): 95 % of control
- T/C (dose: 400.0 mg/kg/injection, schedule: Q04DX003 (ip), vehicle: saline sonified): 120 % of control

Source: PubChem BioAssay AID328 (DTP/NCI, 2004)
